Assay results reported in patent publication US10670605B2, “Cysteine reactive probes and uses thereof” (The Scripps Research Institute, priority 2015, dated 2020).

Experiments:
Test in all cases: Competitive isoTOP-ABPP in situ (fragment-treated cells)
Format in all cases: cell-based
[1] = target: T1, cysteines in MDA-MB-231 and Ramos cells (Homo sapiens, UniProt Q9Y679)
T1 sequence (Q9Y679 1-410): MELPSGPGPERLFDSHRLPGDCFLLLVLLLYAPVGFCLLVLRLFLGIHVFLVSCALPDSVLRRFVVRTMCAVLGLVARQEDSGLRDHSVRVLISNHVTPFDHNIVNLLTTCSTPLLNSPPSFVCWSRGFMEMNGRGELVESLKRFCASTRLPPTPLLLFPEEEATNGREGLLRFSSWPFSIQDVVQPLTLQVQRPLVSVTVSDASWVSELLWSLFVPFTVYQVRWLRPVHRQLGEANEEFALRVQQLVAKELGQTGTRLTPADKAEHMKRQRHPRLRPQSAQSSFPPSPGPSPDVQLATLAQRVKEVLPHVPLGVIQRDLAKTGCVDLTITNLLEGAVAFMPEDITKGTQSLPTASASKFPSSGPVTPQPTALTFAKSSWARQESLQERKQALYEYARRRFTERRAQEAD

[2] = target: T2, cysteines in MDA-MB-231 and Ramos cells (Homo sapiens, UniProt A0AVT1)
T2 sequence (A0AVT1 1-1052): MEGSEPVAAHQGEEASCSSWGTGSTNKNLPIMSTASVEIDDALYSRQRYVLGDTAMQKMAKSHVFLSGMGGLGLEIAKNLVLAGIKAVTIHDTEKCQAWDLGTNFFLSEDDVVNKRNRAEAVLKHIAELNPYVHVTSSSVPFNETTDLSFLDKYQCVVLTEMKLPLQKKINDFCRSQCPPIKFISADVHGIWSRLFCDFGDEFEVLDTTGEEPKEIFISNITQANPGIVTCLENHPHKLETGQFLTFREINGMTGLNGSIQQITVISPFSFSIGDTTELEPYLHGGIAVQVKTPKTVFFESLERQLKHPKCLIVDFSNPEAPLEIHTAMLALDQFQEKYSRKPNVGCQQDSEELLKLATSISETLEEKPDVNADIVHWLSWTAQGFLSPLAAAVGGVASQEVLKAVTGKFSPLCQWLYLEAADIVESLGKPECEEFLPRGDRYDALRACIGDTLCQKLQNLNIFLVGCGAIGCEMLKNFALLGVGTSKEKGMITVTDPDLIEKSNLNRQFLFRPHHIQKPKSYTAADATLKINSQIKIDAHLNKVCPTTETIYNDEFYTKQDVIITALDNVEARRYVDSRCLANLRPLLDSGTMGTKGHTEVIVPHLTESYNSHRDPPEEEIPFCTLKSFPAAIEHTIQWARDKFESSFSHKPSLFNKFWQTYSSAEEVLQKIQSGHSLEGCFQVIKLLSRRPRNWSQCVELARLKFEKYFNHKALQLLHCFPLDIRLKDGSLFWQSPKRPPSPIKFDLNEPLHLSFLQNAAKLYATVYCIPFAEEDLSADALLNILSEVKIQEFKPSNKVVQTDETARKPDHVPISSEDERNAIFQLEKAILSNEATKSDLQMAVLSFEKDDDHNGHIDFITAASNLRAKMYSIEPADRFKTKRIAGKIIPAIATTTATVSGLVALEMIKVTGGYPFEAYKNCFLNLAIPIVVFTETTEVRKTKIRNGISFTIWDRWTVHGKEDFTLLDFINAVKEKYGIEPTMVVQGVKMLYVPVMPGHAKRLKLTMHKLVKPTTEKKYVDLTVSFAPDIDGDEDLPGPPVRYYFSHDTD

[3] = target: cysteines in MDA-MB-231 and Ramos cells (Homo sapiens, UniProt Q15149)
Chain of cysteines in MDA-MB-231 and Ramos cells (Homo sapiens, UniProt Q15149) (Q15149 whole entry): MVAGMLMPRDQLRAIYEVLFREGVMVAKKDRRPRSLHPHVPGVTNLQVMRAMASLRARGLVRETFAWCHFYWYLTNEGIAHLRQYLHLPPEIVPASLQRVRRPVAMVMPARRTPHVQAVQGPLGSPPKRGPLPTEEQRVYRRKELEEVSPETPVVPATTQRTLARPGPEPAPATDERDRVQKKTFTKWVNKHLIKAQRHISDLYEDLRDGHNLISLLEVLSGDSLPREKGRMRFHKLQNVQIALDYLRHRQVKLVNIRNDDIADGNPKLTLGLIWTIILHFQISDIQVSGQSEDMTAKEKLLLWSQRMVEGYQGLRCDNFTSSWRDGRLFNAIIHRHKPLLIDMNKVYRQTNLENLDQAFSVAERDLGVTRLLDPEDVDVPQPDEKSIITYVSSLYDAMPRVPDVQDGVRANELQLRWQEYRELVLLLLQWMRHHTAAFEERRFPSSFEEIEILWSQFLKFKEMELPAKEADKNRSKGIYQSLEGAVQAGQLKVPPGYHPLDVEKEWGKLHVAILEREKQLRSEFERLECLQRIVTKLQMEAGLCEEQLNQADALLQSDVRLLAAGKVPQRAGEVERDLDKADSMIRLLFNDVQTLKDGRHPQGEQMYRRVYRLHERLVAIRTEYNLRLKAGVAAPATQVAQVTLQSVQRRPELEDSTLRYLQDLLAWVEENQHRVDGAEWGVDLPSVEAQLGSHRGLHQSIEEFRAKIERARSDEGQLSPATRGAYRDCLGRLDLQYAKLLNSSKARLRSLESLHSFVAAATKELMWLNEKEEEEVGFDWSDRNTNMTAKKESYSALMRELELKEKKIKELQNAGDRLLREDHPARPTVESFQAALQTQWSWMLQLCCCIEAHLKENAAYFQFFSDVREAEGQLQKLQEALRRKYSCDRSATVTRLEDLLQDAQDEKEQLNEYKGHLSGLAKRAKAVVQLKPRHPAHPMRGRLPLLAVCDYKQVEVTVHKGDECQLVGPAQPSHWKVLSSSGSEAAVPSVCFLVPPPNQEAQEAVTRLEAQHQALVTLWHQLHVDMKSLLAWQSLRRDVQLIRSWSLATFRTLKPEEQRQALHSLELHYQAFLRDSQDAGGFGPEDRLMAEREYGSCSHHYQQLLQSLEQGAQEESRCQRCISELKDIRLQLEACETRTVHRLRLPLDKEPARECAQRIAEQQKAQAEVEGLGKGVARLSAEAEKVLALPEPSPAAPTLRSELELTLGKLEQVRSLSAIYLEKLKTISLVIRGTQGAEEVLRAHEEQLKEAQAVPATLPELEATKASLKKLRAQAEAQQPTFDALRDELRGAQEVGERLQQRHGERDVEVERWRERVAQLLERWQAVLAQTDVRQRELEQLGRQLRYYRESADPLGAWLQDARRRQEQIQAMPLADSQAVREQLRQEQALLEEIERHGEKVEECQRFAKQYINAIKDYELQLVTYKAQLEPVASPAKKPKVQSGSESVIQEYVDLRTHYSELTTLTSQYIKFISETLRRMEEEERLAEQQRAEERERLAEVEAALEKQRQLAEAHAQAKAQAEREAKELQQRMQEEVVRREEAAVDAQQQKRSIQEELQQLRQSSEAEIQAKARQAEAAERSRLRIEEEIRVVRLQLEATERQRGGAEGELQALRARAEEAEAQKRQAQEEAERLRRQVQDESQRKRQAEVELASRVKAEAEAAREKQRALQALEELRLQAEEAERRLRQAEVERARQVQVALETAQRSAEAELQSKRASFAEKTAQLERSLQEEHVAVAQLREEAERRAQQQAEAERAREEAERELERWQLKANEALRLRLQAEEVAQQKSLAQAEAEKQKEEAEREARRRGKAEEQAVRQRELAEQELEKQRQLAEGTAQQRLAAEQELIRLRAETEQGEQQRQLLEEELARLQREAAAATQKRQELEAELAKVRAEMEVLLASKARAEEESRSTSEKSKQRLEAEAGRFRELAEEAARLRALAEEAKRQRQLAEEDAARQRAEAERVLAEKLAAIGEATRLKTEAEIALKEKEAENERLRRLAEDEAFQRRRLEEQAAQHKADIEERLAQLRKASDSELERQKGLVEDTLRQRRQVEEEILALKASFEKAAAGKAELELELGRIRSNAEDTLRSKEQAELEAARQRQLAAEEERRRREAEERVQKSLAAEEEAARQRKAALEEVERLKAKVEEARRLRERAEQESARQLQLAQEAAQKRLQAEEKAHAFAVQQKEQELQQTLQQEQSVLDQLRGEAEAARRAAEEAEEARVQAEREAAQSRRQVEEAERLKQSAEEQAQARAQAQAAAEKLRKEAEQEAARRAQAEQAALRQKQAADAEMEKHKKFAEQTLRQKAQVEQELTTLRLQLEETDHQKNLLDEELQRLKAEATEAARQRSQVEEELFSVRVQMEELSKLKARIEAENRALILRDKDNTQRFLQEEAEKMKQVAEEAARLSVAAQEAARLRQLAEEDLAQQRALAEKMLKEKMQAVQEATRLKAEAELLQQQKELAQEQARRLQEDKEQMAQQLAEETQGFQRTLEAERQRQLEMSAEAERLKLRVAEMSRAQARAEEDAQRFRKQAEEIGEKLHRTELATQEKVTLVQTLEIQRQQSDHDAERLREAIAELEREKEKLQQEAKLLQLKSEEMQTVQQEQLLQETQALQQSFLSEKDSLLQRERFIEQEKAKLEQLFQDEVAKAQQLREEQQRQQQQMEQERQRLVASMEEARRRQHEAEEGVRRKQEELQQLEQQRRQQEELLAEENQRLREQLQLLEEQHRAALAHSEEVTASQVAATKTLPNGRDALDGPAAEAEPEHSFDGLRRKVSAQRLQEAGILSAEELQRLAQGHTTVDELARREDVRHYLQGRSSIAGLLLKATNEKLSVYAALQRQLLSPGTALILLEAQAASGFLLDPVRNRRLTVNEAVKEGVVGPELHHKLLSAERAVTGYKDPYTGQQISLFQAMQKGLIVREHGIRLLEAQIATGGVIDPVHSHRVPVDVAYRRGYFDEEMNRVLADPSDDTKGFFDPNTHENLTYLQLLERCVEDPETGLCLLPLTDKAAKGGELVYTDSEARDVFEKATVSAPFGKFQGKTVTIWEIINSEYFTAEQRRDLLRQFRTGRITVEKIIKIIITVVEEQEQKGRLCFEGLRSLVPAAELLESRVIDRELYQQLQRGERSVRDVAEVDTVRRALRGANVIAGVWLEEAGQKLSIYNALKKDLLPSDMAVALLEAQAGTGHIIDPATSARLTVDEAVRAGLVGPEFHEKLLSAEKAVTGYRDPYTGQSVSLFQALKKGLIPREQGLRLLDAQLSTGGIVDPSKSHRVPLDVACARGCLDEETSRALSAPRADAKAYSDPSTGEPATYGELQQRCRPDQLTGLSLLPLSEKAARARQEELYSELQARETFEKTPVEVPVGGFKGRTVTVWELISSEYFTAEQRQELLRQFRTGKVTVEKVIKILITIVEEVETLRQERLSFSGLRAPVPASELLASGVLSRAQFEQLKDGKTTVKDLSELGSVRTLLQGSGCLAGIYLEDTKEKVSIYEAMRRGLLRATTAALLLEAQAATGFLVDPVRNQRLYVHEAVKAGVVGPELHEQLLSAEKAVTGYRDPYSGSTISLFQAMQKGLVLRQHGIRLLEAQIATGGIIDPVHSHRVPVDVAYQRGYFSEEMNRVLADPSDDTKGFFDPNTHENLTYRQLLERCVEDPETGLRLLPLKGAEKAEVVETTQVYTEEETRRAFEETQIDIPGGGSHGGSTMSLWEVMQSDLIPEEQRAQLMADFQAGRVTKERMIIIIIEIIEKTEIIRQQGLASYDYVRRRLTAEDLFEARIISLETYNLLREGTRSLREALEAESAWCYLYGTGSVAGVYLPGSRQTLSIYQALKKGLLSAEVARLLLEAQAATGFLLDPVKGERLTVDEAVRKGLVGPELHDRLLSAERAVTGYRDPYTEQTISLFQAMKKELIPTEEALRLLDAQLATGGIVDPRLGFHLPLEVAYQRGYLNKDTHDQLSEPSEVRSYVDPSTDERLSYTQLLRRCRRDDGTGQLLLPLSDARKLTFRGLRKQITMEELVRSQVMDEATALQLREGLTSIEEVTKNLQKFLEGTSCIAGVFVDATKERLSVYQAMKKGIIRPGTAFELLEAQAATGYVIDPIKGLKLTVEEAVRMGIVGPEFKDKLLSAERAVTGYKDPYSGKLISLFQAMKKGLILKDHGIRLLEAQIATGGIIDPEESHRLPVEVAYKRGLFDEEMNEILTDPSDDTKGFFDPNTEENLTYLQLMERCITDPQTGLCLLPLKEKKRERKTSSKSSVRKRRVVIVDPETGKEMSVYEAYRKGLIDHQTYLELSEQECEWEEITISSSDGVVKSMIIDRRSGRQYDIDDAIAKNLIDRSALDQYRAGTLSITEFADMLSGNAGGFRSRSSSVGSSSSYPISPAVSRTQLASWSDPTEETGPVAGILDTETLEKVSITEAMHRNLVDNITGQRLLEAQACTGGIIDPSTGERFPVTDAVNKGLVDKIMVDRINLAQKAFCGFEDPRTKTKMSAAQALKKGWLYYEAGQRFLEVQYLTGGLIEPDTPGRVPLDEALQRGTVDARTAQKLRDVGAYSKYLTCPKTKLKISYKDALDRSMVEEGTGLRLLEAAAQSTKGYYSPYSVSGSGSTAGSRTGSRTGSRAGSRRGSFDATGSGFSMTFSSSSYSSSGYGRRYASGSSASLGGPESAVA

[4] = target: T3, cysteines in MDA-MB-231 and Ramos cells (Homo sapiens, UniProt Q9P0J1)
T3 sequence (Q9P0J1 72-537): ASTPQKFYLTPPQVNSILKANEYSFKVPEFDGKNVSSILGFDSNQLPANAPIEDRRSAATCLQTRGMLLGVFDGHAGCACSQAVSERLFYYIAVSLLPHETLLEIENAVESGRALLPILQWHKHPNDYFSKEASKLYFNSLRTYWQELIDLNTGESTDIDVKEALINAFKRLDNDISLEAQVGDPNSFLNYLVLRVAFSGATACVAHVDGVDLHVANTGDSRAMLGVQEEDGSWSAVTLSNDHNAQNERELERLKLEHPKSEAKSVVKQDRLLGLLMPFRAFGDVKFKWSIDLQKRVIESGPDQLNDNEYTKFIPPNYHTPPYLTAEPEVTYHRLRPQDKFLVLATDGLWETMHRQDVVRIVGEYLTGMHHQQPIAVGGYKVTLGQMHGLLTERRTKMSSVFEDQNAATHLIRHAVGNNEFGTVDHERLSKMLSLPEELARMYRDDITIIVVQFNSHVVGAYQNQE

[5] = target: cysteines in MDA-MB-231 and Ramos cells (Homo sapiens, UniProt Q13630); conditions: 200 μM, insitu
Chain of cysteines in MDA-MB-231 and Ramos cells (Homo sapiens, UniProt Q13630) (Q13630 whole entry): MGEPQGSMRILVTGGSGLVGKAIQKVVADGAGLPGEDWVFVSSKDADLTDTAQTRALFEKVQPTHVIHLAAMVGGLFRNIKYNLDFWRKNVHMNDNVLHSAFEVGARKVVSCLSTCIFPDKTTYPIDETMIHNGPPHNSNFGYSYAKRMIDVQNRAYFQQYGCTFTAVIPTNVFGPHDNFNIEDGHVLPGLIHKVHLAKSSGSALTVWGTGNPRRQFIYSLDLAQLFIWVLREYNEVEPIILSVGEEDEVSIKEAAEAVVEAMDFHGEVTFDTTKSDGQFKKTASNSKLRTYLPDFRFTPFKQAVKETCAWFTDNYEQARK

CC(C)CCOCCNC(=O)CCl [compound 27]
isoTOP-ABPP ratio Q9Y679_C391 ([1]; 200 μM, insitu, 231): 1.2 | isoTOP-ABPP ratio A0AVT1_C347 ([2]; 200 μM, insitu, 231): 0.8 | isoTOP-ABPP ratio Q15149_C4574 ([3]; 200 μM, insitu, 231): 1.3

COc1cc2c(cc1OC)CN(C(=O)CCl)CC2 [compound 8]
isoTOP-ABPP reactivity Q9Y679_C391 AUP1 ([1]; 200 μM, insitu, 231): 20.0

COc1ccc(C2CC(c3cccs3)=NN2C(=O)CCl)cc1 (stereo not shown) [compound 4]
isoTOP-ABPP reactivity Q9Y679_C391 AUP1 ([1]; 100 μM in situ 231): 20.0 | isoTOP-ABPP reactivity A0AVT1_C347 UBA6 ([2]; 100 μM in situ 231): 20.0 | isoTOP-ABPP reactivity Q15149_C4574 PLEC ([3]; 100 μM in situ 231): 4.2

O=C(CCl)Nc1cccc2ncccc12 [compound 51]
isoTOP-ABPP ratio Q9Y679_C391 ([1]; 200 μM, insitu, 231): 20.0 | isoTOP-ABPP ratio Q9P0J1_C149 ([4]; 200 μM, insitu, 231): 0.8

O=C(CCl)N1CCN(S(=O)(=O)c2ccccc2F)CC1 [compound 10]
isoTOP-ABPP ratio, cysteine A0AVT1_C347 ([2]; 200 μM, insitu, ramos): 20.0 | isoTOP-ABPP ratio, cysteine Q15149_C4574 ([3]; 200 μM, insitu, 231): 2.2 | isoTOP-ABPP ratio, cysteine Q9P0J1_C149 ([4]; 200 μM, insitu, 231): 18.0 | isoTOP-ABPP ratio, cysteine Q13630_C116 [5]; 231: 20.0

CC1CCc2ccccc2N1C(=O)CCl (stereo not shown) [compound 45]
isoTOP-ABPP ratio Q9Y679_C391 ([1]; 200 μM, insitu, 231): 20.0 | isoTOP-ABPP ratio Q13630_C116 [5]; 231: 20.0

Cc1ccc(C=C(C#N)C(=O)NCCN2CCOCC2)cc1 [compound 41]
isoTOP-ABPP ratio A0AVT1_C347 ([2]; 200 μM, insitu, 231): 0.6 | isoTOP-ABPP ratio Q15149_C4574 ([3]; 200 μM, insitu, 231): 0.9 | isoTOP-ABPP ratio Q9P0J1_C149 ([4]; 200 μM, insitu, 231): 20.0

COc1ccc2c(c1)CCCN2C(=O)CCl [compound 2]
isoTOP-ABPP reactivity Q9P0J1_C149 PDP1 ([4]; 200 μM, insitu, 231): 20.0 | isoTOP-ABPP reactivity Q13630_C116 TSTA3 [5]; 231: 20.0

C=CC(=O)Nc1cc(F)c(N2CCN(C(=O)OC(C)(C)C)CC2)c(F)c1 [compound 38]
isoTOP-ABPP ratio Q9P0J1_C149 ([4]; 200 μM, insitu, 231): 0.9

O=C(CCl)NC(=O)NC12CC3CC(CC(C3)C1)C2 [compound 12]
isoTOP-ABPP ratio, cysteine Q9P0J1_C149 ([4]; 200 μM, insitu, 231): 18.5

C=CC(=O)N(Cc1cccnc1)c1cc(C(F)(F)F)cc(C(F)(F)F)c1 [compound 31]
isoTOP-ABPP ratio A0AVT1_C347 ([2]; 200 μM, insitu, ramos): 1.9

Cn1cc(S(=O)(=O)N2CCOCC2)cc1C(=O)NC(=O)CCl [compound 11]
isoTOP-ABPP ratio, cysteine Q9Y679_C391 ([1]; 100 μM in situ 231): 3.0 | isoTOP-ABPP ratio, cysteine A0AVT1_C347 ([2]; 100 μM in situ 231): 1.6 | isoTOP-ABPP ratio, cysteine Q15149_C4574 ([3]; 100 μM in situ 231): 1.1 | isoTOP-ABPP ratio, cysteine Q9P0J1_C149 ([4]; 100 μM in situ 231): 1.4

O=C(CCl)NCCc1c[nH]c2ccccc12 [compound 13]
isoTOP-ABPP ratio, cysteine A0AVT1_C347 ([2]; 200 μM, insitu, 231): 1.3 | isoTOP-ABPP ratio, cysteine Q15149_C4574 ([3]; 200 μM, insitu, 231): 1.4 | isoTOP-ABPP ratio, cysteine Q13630_C116 ([5]; ramos): 1.2

O=C(CCl)N1CCN(CC(=O)N2CCOCC2)CC1 [compound 29]
isoTOP-ABPP ratio Q9P0J1_C149 ([4]; 200 μM, insitu, ramos): 1.0

O=C(CCl)NC12CC3CC(CC(C3)C1)C2 [compound 21]
isoTOP-ABPP ratio, cysteine Q9Y679_C391 ([1]; 200 μM, insitu, 231): 1.5 | isoTOP-ABPP ratio, cysteine Q15149_C4574 ([3]; 200 μM, insitu, 231): 1.0 | isoTOP-ABPP ratio, cysteine Q13630_C116 [5]; 231: 0.8

O=C(CCl)N1CCC(Cc2ccccc2)CC1 [compound 9]
isoTOP-ABPP reactivity A0AVT1_C347 UBA6 ([2]; 200 μM, insitu, 231): 3.3 | isoTOP-ABPP reactivity Q15149_C4574 PLEC ([3]; 200 μM, insitu, 231): 0.8 | isoTOP-ABPP reactivity Q13630_C116 TSTA3 [5]; 231: 1.9
